Assays:
rat motor neurons = test: in vitro model of trophic deprivation of rat motor neurons (survival, calcein fluorescence); assay type: cell-based; conditions: 3 days in basal medium, compared with medium supplemented with neurotrophic factors, ratio > 0 = positive effect
Protocol: The spinal cord of E14 rat embryos is dissected and the ventral part is isolated by trituration after trypsination. […] The cells are centrifuged on a density gradient. The motor neurons are enriched in the fraction of the large cells (the least dense). The cells of this fraction are incubated with an anti-p75 antibody, a surface antigen present on the motor neurons. Secondary antibodies coupled with magnetic balls are added and the mixture of cells is passed through a column in a magnet (Arce et al., 1999). Only the motor neurons are retained: their purity is of the order of 90%.
The motor neurons are inoculated at low density in culture wells on a substrate of polyornithine-laminin in a neurobasal medium supplemented according to Raoul et al., 1999, Programmed cell death of embryonic motor neurons triggered through the Fas death receptor. […] Negative controls (absence of trophic factors) and positive controls (in the presence of BDNF (Brain-Derived Neurotrophic Factor) at 1 ng/ml, GDNF (Glial-Derived Neurotrophic Factor) at 1 ng/ml and CNTF (Ciliary Neurotrophic Factor) at 10 ng/ml, marketed by the American company PEPROTECH, Inc. and the Sigma-Aldrich company, are included in each series.
The compounds to be tested are added 60 minutes after the inoculation and the cultures are maintained at 37° C. under 5% CO2 for 3 days.
After 3 days, the survival is evaluated by a fluorescence measurement after incubation of the cells in the presence of calcein which becomes fluorescent in the living cells.
The activity of the compounds to be tested was evaluated according to their capacity to prevent the death of the motor neurons when they are added to the neurobasal medium compared with the survival of the motor neurons in medium supplemented with neurotrophic factors.
This survival rate is expressed by a number, the ratio.

[1] = tested on: motor neurons of the nucleus of the facial nerve; test: axotomy of the facial nerve in new-born rats, count of motor neurons of the facial nucleus; assay type: in vivo, rat; conditions: axotomized new-born rats; dose between 3 and 100 mg/kg according to the administration route; compared with the nerve which is not sectioned
Protocol: An axotomy of the facial nerve is performed on new-born young rats of 2-3 days old. The animals receive the cholest-4-en-3-one oxime 4 hours before the unilateral section of the nerve then daily for 5 days by sub-cutaneous route. Seven days after the section of the nerve, the animals are anaesthetized, then fixed by intra-cardial perfusion of paraformaldehyde. The brain is then removed and placed in paraffin. The histological analysis of compound sections of 7 μm of the nucleus of the facial nerve, stained with cresyl violet, allows the number of motor neurons of the intact side as well as of the side of the nerve which has been sectioned to be counted (Casanovas et al., Prevention by lamotrigine, MK-801 and N omega-nitro-L-arginine methyl ester of motoneuron cell death after neonatal axotomy, Neuroscience, 1996, 71, 313-325).

[2] = tested on: striatal neurons expressing truncated mutated huntingtin; test: protection of striatal neurons from death induced by overexpression of a mutated form of huntingtin; assay type: cell-based; conditions: 1 μM in 0.5% DMSO; 7 days; compared with medium supplemented with BDNF
Protocol: Primary cultures of striatal neurons are prepared as described in the literature (Primary striatal neuronal culture, Mao L. et al., Methods Mol. Med., 2003, 79:379-86). […] A second expression vector containing the DNA coding the green fluorescent protein (GFP) also undergoes electroporation and serves as a reporter gene. The DNA of the plasmid coding the huntingtin was prepared by purification with cesium chloride. The plasmid containing the GFP sequence was prepared on Qiagen columns. The integrity of the DNA sequences is verified by sequencing, transfection and western blotting. The cells which survive the electroporation are inoculated at a density of 4000 cells per well of a 96-well plate. The culture takes place in Neurobasal medium (GIBCO) complimented with pyruvate and B-27 (Beckton Dickinson). The cells are maintained in culture for 7 days without changing the medium.
The treatments with the compounds to be tested are carried out just after the inoculation at a final concentration of 1 μM in 0.5% of dimethyl sulphoxide (DMSO). The positive controls are carried out by the addition of BDNF at 5 ng/ml final. The negative controls only receive 0.5% DMSO.
Cell death is evaluated after the 7 days by counting the number of living cells expressing the GFP.
The activity of the compounds to be tested was evaluated by their capacity to prevent the death of the striatal neurons cultured in the neurobasal medium compared with the survival of the striatal neurons in medium supplemented with BDNF (Brain-Derived Neurotrophic Factor).

GABAA receptors = test: electrophysiology in vitro with rat neurons (slices of hippocampus on MEA, sensitive neurons in patch clamp); assay type: cell-based; conditions: for effect on the stimulating GABAA transmission (postsynaptic field potentials, CA1): slices of hippocampus, 20 μM bicuculline, 50 μM picrotoxin, 1-10 μM diazepam, 10-1000 nM steroids
Protocol: Electrophysiological experiments were carried out in vitro with rat neurons (slices of hippocampus, neurons sensitive in culture), as follows:
The experiments are carried out with hippocampi removed from rats of the Sprague Dawley strain aged from 10 to 21 days. The animals are sacrificed by decapitation, and their brain is rapidly transferred into ACSF (Artificial Cerebro-Spinal Fluid) without sodium (composition: 2 mM KCl, 1.2 mM NaH2PO4, 2 mM MgCl2, 0.5 mM CaCl2, 26 mM NaHCO3, 11 mM glucose, 250 mM saccharose), maintained at a temperature of 4° C. and carbogen (a 95% O2, 5% CO2 mixture) is bubbled through. The hippocampi are extracted from each cerebral hemisphere then cut up into slices of […] thickness using a “tissue chopper”. The slices are left to rest in ACSF medium (composition: 126 mM NaCl, 2 mM KCl, 1.2 mM NaH2PO4, 2 mM MgCl2, 0.5 mM CaCl2, 26 mM NaHCO3, 11 mM glucose) at ambient temperature, at least one hour before recording. Using a pipette, one slice is then deposited on a multi-electrode recording system (MEA, MultiChannel Systems™, Germany) and positioned so as to cover the […]. In order to avoid any change in position by the perfusion flow, a grid weighted down by a platinum <<U>> is positioned on the slice. The MEA is then rapidly inserted into the recording system and the chamber perfused with ACSF with carbogen bubbled through; the middle of the chamber is connected to earth. The perfused ACSF as well as the MEA are maintained at a temperature of 37° C. One of the 60 electrodes is selected as a stimulation electrode. A biphasic stimulation current with an intensity of 300 μA over 0.1 ms is generated from this electrode at a rate of one stimulation every 30 seconds. The responses produced are seen simultaneously at the level of the 59 other electrodes of the MEA. The axons of the Schaeffer collaterals are stimulated in the CA3. In the CA1 region, 6 to 12 electrodes are selected in order to record the field potentials which correspond to the sum of the variations of the postsynaptic potentials of the neurons situated close to each electrode. The molecules tested are dissolved in the ACSF medium (the final concentration of DMSO is ≦0.1%) and carried over onto the slice by means of the perfusion system.
The sensitive rat neurons are cultured for 1 to 2 days and then recorded with the patch clamp technique as described in De Roo M. et al. (Dehydroepiandrosterone potentiates native ionotropic ATP receptors containing the P2X2 subunit in rat sensory neurones, J Physiol, 2003, 552:59-71).

[3] = toxicological study in mice; assay type: in vivo; conditions: oral, sub-cutaneous, intra-peritoneal and intravenous routes, up to 300 mg/kg/day, daily up to 28 days

CC(C)CCC[C@@H](C)[C@H]1CC[C@H]2[C@@H]3CCC4=CC(=NO)CC[C@]4(C)[C@H]3CC[C@]12C [Compound 1, Cholest-4-en-3-one oxime]
Ratio (survival rate of the motor neurons) (rat motor neurons; 5 μM): 1
increase of survival of the motor neurons of the nucleus of the facial nerve [1]: up to 40%
Ratio (survival of striatal neurons) [2]: 0.3
blocking of the effect of positive allosteric modulators of the GABAA receptors (GABAA receptors; allopregnanolone or tetrahydrodeoxycorticosterone as modulators, dose-dependent, concentrations equivalent to those with neurotrophic effects in vitro): capable of blocking
effect on the GABAA receptors, compound alone (GABAA receptors; tested alone up to 10 μM, slice of hippocampus or sensitive neurons): no effect
toxicity [3]: did not show significant toxicity

CC(C)CCC[C@@H](C)[C@H]1CC[C@H]2[C@@H]3CCC4=CC(=NO)C=C[C@]4(C)[C@H]3CC[C@]12C [Compound 2, 1,4-cholestadien-3-one oxime]
Ratio (survival rate of the motor neurons) (rat motor neurons; 5 μM): 0.6

CC(C)=CCC[C@@H](C)[C@H]1CC[C@H]2[C@@H]3CCC4=CC(=O)CC[C@]4(C)[C@H]3CC[C@]12C [Compound 4, Cholest-4,24-dien-3-one]
Ratio (survival of striatal neurons) [2]: 0.2

CC(C)=CCC[C@@H](C)[C@H]1CC[C@H]2[C@@H]3CCC4=CC(=NO)CC[C@]4(C)[C@H]3CC[C@]12C [Compound 6, 4,24-cholestadien-3-one oxime]
Ratio (survival rate of the motor neurons) (rat motor neurons; 5 μM): 0.5

CC(C)CC=C[C@@H](C)[C@H]1CC[C@H]2[C@@H]3CCC4=CC(=NO)CC[C@]4(C)[C@H]3CC[C@]12C [Compound 7, 4,22-cholestadien-3-one oxime]
Ratio (survival rate of the motor neurons) (rat motor neurons; 6 μM): 0.25

CC[C@H](CC[C@@H](C)[C@H]1CC[C@H]2[C@@H]3CCC4=CC(=NO)CC[C@]4(C)[C@H]3CC[C@]12C)C(C)C [Compound 8, 4-stigmasta-ene-3-one oxime]
Ratio (survival rate of the motor neurons) (rat motor neurons; 10 μM): 0.3

CC(C)CCC[C@@H](C)[C@H]1CC[C@H]2[C@@H]3CC[C@]4(O)CC(=O)CC[C@]4(C)[C@H]3CC[C@]12C [Compound 9, 5-beta-hydroxy-cholestan-3-one]
Ratio (survival rate of the motor neurons) (rat motor neurons; 1 μM): 0.5
Ratio (survival of striatal neurons) [2]: 0.5

CC(C)CCC[C@@H](C)[C@H]1CC[C@H]2[C@@H]3C=C[C@H]4CC(=O)CC[C@]4(C)[C@H]3CC[C@]12C [Compound 11, 5-alpha-cholest-6-en-3-one]
Ratio (survival of striatal neurons) [2]: 0.3

CC(C)C(C)C=C[C@@H](C)[C@H]1CC[C@H]2[C@@H]3C=CC4=CC(=O)CC[C@]4(C)[C@H]3CC[C@]12C (stereo partly shown) [Compound 12, 24-methylcholest-4,6,22-trien-3-one]
Ratio (survival of striatal neurons) [2]: 0.3

CC(C)[C@@H](C)C=C[C@@H](C)[C@H]1CC[C@H]2[C@@H]3C=CC4=CC(=NO)CC[C@]4(C)[C@H]3CC[C@]12C [Compound 15, 4.6, 22-ergosta-trien-3-one oxime]
Ratio (survival rate of the motor neurons) (rat motor neurons; 5 μM): 0.2

CC(C)CCC[C@@H](C)[C@H]1CC[C@H]2[C@@H]3C=CC4=CC(=NO)C=C[C@]4(C)[C@H]3CC[C@]12C [Compound 17, 1.4,6-cholesta-trien-3-one oxime]
Ratio (survival rate of the motor neurons) (rat motor neurons; 5 μM): 0.3

CC(=O)[C@H]1CC[C@H]2[C@@H]3CC[C@H]4C[C@H](O)CC[C@]4(C)[C@H]3CC[C@]12C [allopregnanolone, 3α-hydroxy-5α-pregnan-20-one]
effect on chlorine currents produced by isoguvacine (GABAA receptors; sensitive neurons, patch-clamp): potentialized
effect on the stimulating GABAA transmission (postsynaptic field potentials, CA1) (GABAA receptors): potentialized

CN1C(=O)CN=C(c2ccccc2)c2cc(Cl)ccc21 [diazepam]
effect on the stimulating GABAA transmission (postsynaptic field potentials, CA1) (GABAA receptors): potentialized

C[C@]12CC[C@@H](O)C[C@@H]1CC[C@@H]1[C@@H]2CC[C@]2(C)[C@@H](C(=O)CO)CC[C@@H]12 [tetrahydrodeoxycorticosterone]
effect on the stimulating GABAA transmission (postsynaptic field potentials, CA1) (GABAA receptors): potentialized

picrotoxin
effect on the stimulating GABAA transmission (postsynaptic field potentials, CA1) (GABAA receptors): blocked
